# From publication PMC3431801 (2012)
# Columns and labels:
# Assay type in all cases: biochemical
# [1] = tested on: PDE3; assay: recombinant PDE activity assay with [3H]cAMP
# [2] = tested on: PDE1; assay: recombinant PDE activity assay with [3H]cAMP, calmodulin and Ca2+
# [3] = biological target: PDE4D (PDE4) (Homo sapiens, UniProt Q08499); assay: recombinant PDE activity assay with [3H]cAMP
# Chain of PDE4D (PDE4) (Q08499 whole entry): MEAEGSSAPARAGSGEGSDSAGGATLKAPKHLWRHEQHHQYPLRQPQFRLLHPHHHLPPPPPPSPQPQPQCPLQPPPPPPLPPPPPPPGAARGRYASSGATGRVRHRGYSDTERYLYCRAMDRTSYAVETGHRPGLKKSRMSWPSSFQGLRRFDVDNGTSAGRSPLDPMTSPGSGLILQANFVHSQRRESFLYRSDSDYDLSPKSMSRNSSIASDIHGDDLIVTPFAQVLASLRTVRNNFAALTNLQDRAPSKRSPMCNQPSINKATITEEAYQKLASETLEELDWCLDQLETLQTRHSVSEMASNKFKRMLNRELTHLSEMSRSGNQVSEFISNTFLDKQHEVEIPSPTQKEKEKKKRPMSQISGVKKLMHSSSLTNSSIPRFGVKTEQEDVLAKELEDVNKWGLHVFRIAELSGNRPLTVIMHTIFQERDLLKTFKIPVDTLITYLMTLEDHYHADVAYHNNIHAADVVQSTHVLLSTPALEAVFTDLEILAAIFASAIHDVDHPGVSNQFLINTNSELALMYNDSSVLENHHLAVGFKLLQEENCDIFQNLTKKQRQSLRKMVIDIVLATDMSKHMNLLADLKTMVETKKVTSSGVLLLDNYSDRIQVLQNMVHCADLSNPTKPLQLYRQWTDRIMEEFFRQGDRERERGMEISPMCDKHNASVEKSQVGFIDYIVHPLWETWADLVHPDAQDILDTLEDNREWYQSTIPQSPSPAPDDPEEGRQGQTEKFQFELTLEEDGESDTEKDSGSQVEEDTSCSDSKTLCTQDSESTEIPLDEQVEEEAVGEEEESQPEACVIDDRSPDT
smiles,measurement,setting,value
Oc1ccc(/C=C/c2cc(O)cc(O)c2)cc1 [resveratrol],IC50,[1],~10 µM
same,IC50,[2],~6 µM
same,IC50,[3],~14 µM
